# Data published in patent US9815796B2 (Merck Sharp & Dohme Corp., priority 2013, dated 2017).
# Molecular target: Rhesus PDE2A3 (Macaca mulatta, UniProt B3VTJ2)
# Assay: PDE2 fluorescence polarization (IMAP FP) inhibition assay, rhesus enzyme
# Format: biochemical, rhesus macaque
# Conditions: Rhesus PDE2, Lab A, at 1 uM
# Experimental: The activity of the compounds in accordance with the present invention as PDE2 inhibitors may be readily determined using a fluorescence polarization (FP) methodology (Huang, W., et al., J. Biomol Screen, 2002, 7: 215).
# In a typical experiment the PDE2 inhibitory activity of the compounds of the present invention was determined in accordance with the following experimental method. Rhesus PDE2A3 was amplified from rhesus macaque brain cDNA (Biochain Institute, Hayward, Calif.) using primers based on human PDE2A sequence (accession NM_002599.3) where the forward primer containing a Kozak consensus was 5′-[…]-3′ and the reverse primer was 5′-[…]-3′. Amplification with Easy-A High-Fidelity PCR cloning enzyme (Stratagene, La Jolla, Calif.) was 95° C. for 2 minutes followed by thirty three cycles of 95° C. for 40 seconds, 52° C. for 30 seconds, and 72° C. for 2 minutes 48 seconds. Final extension was 72° C. for 7 minutes. The PCR product was TA cloned into pcDNA3.3-TOPO (Invitrogen, Carlsbad, Calif.) according to standard protocol. A consensus sequence was developed from multiple clones and then deposited into GenBank (EU812167). AD293 cells (Stratagene, La Jolla, Calif.) with 70-80% confluency were transiently transfected with rhesus PDE2A3/pcDNA3.3-TOPO using Lipofectamine 2000 according to manufacturer specifications (Invitrogen, Carlsbad, Calif.). Cells were harvested 48 hours post-transfection and lysed by sonication (setting 3, 10×5 sec pulses) in a buffer containing 20 mM HEPES pH 7.4, 1 mM EDTA and Complete Protease Inhibitor Cocktail Tablets (Roche, Indianapolis, Ind.). Lysate was collected by centrifugation at 75,000×g for 20 minutes at 4° C. and supernatant utilized for evaluation of PDE2 activity. The fluorescence polarization assay for cyclic nucleotide phosphodiesterases was performed using an IMAP® FP kit supplied by Molecular Devices, Sunnyvale, Calif. (product # R8139). […] Assays were performed at room temperature in 384-well microtiter plates with an incubation volume of 20.2 μL. Solutions of test compounds were prepared in DMSO and serially diluted with DMSO to yield 8 μL of each of 10 solutions differing by 3-fold in concentration, at 32 serial dilutions per plate. […] 0% of inhibition is determined by using DMSO (1% final concentrations).
# A Labcyte Echo 555 (Labcyte, Sunnyvale, Calif.) is used to dispense 200 nL from each well of the titration plate to the 384 well assay plate. Ten microliters of a solution of enzyme (1/2000 final dilution from aliquots; sufficient to produce 20% substrate conversion) was added to the assay plate. Next 10 uL of a separate solution of the substrate FAM-labeled cAMP (50 nM final concentration product # R7506 from Molecular Devices) and the activator cGMP (1 uM final concentration), prepared in the assay buffer (10 mM Tris HCl, pH 7.2, 10 mM MgCl2, 0.05% NaN3 0.01% Tween-20, and 1 mM DTT) was added to the assay plate and shaken to mix. The reaction is allowed to proceed at room temperature for 60 minutes. A binding solution is then made from the kit components, comprised of 80% Solution A, 20% Solution B and binding reagent at a volume of 1/600 the total binding solution. The enzymatic reaction is stopped by addition of 60 μL of the binding solution to each well of the assay plates and the plates are sealed and shaken for 30 seconds. The plate was incubated at room temperature for at least one hour prior to determining the fluorescence polarization (FP). The parallel and perpendicular fluorescence of each well of the plate was measured using a Tecan Genios Pro plate reader (Tecan, Switzerland) or Perkin Elmer EnVision™ plate reader (Waltham, Mass.). Fluorescence polarization (mP) was calculated from the parallel (S) and perpendicular (P) fluorescence of each sample well and the analogous values for the median control well, containing only substrate (So and Po), using the following equation: Polarization (mP)=1000*(S/So−P/Po)/(S/So+P/Po).
# Chain of Rhesus PDE2A3 (B3VTJ2 1-941): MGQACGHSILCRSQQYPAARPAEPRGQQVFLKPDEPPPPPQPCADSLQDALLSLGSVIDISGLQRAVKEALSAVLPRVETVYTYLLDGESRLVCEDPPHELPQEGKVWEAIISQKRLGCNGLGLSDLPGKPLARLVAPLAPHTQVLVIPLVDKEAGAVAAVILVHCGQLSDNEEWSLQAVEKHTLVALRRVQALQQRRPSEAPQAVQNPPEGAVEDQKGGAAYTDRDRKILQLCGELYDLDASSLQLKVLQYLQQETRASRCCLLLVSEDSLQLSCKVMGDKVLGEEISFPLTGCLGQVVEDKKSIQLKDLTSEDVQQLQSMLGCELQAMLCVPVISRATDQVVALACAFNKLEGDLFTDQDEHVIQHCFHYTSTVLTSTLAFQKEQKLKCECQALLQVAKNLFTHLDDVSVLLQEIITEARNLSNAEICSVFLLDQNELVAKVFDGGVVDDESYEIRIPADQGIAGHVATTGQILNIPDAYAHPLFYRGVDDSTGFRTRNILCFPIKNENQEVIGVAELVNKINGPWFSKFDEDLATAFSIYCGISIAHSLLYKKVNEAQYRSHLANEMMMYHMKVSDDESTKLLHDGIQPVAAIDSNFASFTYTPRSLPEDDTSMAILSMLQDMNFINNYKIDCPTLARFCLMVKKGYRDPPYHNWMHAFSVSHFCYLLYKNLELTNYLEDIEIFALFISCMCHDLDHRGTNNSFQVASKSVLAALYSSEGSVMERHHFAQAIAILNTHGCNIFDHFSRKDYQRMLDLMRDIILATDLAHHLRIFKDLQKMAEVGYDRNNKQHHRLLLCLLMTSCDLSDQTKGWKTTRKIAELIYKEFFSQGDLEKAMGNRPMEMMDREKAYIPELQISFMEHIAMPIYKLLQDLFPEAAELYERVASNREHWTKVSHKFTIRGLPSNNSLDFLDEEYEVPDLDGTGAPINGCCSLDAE
row,Structure (SMILES),Rhesus PDE2 % inh. at 1 uM - Lab A [% inh.]
1,"C[C@@H](NC(=O)c1cc(=O)[nH]c(-c2ccccc2)n1)c1cccc2ccccc12 [Example 354, N-[(1R)-1-naphthalen-1-ylethyl]-6-oxo-2-phenyl-1,6-dihydropyrimidine-4-carboxamide]",42

# Same assay, conditions: Rhesus PDE2, Lab A; read-out: Rhesus PDE2 Ki (nM) - Lab A
row,Structure (SMILES),Ki [nM]
1,"CC(NC(=O)c1cc(=O)[nH]c(-c2ncccn2)n1)c1ccc(C(F)(F)F)cc1Cl (stereo not drawn) [Example 96, N-{1-[2-chloro-4-(trifluoromethyl)phenyl]ethyl}-6-oxo-1,6-dihydro-2,2′-bipyrimidine-4-carboxamide]",1280
2,"O=C(NCc1ccc(C2CC2)cc1)c1cc(=O)[nH]c(C2CC2)n1 [Example 221, 2-cyclopropyl-N-(4-cyclopropylbenzyl)-6-oxo-1,6-dihydropyrimidine-4-carboxamide]",681
3,"COc1ccc(C(NC(=O)c2cc(=O)[nH]c(C3CC3)n2)c2ccc(C(F)(F)F)cc2)cc1 (stereo not drawn) [Example 205, 2-cyclopropyl-N-{(4-methoxyphenyl)[4-(trifluoromethyl)phenyl]methyl}-6-oxo-1,6-dihydropyrimidine-4-carboxamide]",694
4,"Cc1nc(C(=O)N[C@H](C)c2ccc(-c3ccc(C(F)(F)F)nc3)cc2)cc(=O)[nH]1 [Example 321, 2-methyl-6-oxo-N-[(1R)-1-{4-[6-(trifluoromethyl)pyridin-3-yl]phenyl}ethyl]-1,6-dihydropyrimidine-4-carboxamide]",911
5,"CC(C)(NC(=O)c1cc(=O)[nH]c(-c2ccccc2)n1)c1ccc(F)c(F)c1 [Example 344, N-[1-(3,4-difluorophenyl)-1-methylethyl]-6-oxo-2-phenyl-1,6-dihydropyrimidine-4-carboxamide]",~449
6,"Cc1nc(C(=O)NC(C)c2ccc(-c3ccccc3)cc2)cc(=O)[nH]1 (single isomer, unassigned) [Example 308, (S)- or (R)-N-(1-biphenyl-4-ylethyl)-2-methyl-6-oxo-1,6-dihydropyrimidine-4-carboxamide]",2500
7,"Cc1nc(C(=O)NC(c2ccc(F)cc2)c2ccc(C(F)(F)F)cc2)cc(=O)[nH]1 (stereo not drawn) [Example 130, N-{(4-fluorophenyl)[4-(trifluoromethyl)phenyl]methyl}-2-methyl-6-oxo-1,6-dihydropyrimidine-4-carboxamide]",715
8,"CC(C)(NC(=O)c1cc(=O)[nH]c(-c2ccccc2)n1)c1ccc(F)cc1 [Example 349, N-[1-(4-fluorophenyl)-1-methylethyl]-6-oxo-2-phenyl-1,6-dihydropyrimidine-4-carboxamide]",~525
9,"COc1cc(-c2ccc([C@@H](C)NC(=O)c3cc(=O)[nH]c(C)n3)cc2)ccn1 [Example 317, (R)—N-(1-(4-(2-methoxypyridin-4-yl)phenyl)ethyl)-2-methyl-6-oxo-1,6-dihydropyrimidine-4-carboxamide]",1810
10,"Cc1cc(C(F)(F)F)ccc1CNC(=O)c1cc(=O)[nH]c(C2CC2)n1 [Example 228, 2-cyclopropyl-N-[2-methyl-4-(trifluoromethyl)benzyl]-6-oxo-1,6-dihydropyrimidine-4-carboxamide]",1430
11,"C[C@@H](NC(=O)c1cc(=O)[nH]c(-c2ccccc2)n1)c1cccc2ccccc12 [Example 354, N-[(1R)-1-naphthalen-1-ylethyl]-6-oxo-2-phenyl-1,6-dihydropyrimidine-4-carboxamide]",> 1000
12,"COCc1nc(C(=O)NC(CO)c2ccc(C(F)(F)F)cc2)cc(=O)[nH]1 (stereo not drawn) [Example 112, N-{2-hydroxy-1-[4-(trifluoromethyl)phenyl]ethyl}-2-(methoxymethyl)-6-oxo-1,6-dihydropyrimidine-4-carboxamide]",1110
13,"Cc1cc(-c2ccc([C@@H](C)NC(=O)c3cc(=O)[nH]c(C)n3)cc2)ccn1 [Example 319, 2-methyl-N-{(1R)-1-[4-(2-methylpyridin-4-yl)phenyl]ethyl}-6-oxo-1,6-dihydropyrimidine-4-carboxamide]",1490
14,"CN(Cc1ccc(C(F)(F)F)cc1)C(=O)c1cc(=O)[nH]c(-c2ccccc2)n1 [Example 345, N-methyl-6-oxo-2-phenyl-N-[4-(trifluoromethyl)benzyl]-1,6-dihydropyrimidine-4-carboxamide]",8340
15,"Cc1nc(C(=O)N[C@@H](c2ccc(C(F)(F)F)cc2)[C@H](C)O)cc(=O)[nH]1 [Example 64, N-((1S,2S)-2-hydroxy-1-(4-(trifluoromethyl)phenyl)propyl)-2-methyl-6-oxo-1,6-dihydropyrimidine-4-carboxamide]",~39300
16,"Cc1nc(C(=O)N[C@H](C)c2ccc(-c3cccnc3)cc2)cc(=O)[nH]1 [Example 320, 2-methyl-6-oxo-N-[(1R)-1-(4-pyridin-3-ylphenyl)ethyl]-1,6-dihydropyrimidine-4-carboxamide]",1700
17,C[C@H](c1ccc(C(F)(F)F)cc1)N(C)C(=O)c1cc(=O)[nH]c(C2CC2)n1 [Example 209],17400
18,"CC(NC(=O)c1cc(=O)[nH]c(-c2ccccc2)n1)c1ccc(C(F)(F)F)nc1 (stereo not drawn) [Example 356, 6-oxo-2-phenyl-N-{1-[6-(trifluoromethyl)pyridin-3-yl]ethyl}-1,6-dihydropyrimidine-4-carboxamide]",345
19,"CC(C)(NC(=O)c1cc(=O)[nH]c(-c2ncccn2)n1)c1ccc(SC(F)(F)F)c(F)c1 [Example 241, N-(1-{3-fluoro-4-[(trifluoromethyl)sulfanyl]phenyl}-1-methylethyl)-6-oxo-1,6-dihydro-2,2′-bipyrimidine-4-carboxamide]",557
20,"O=C(NC(c1ccccc1)c1ccc(C(F)(F)F)cc1)c1cc(=O)[nH]c(C2CC2)n1 (stereo not drawn) [Example 196, 2-cyclopropyl-6-oxo-N-{phenyl[4-(trifluoromethyl)phenyl]methyl}-1,6-dihydropyrimidine-4-carboxamide]",915

# Same assay, conditions: Rhesus PDE2, Lab B; read-out: Rhesus PDE2 Ki (nM) - Lab B
row,Structure (SMILES),Ki [nM]
1,"C[C@@H](NC(=O)c1cc(=O)[nH]c(-c2nccs2)n1)c1ccc(C(F)(F)F)cc1 [Example 674, (R)-6-oxo-2-(thiazol-2-yl)-N-(1-(4-(trifluoromethyl)phenyl)ethyl)-1,6-dihydropyrimidine-4-carboxamide]",583
2,"CC(C)(NC(=O)c1cc(=O)[nH]c(-c2ccccc2)n1)c1ccc(F)c(F)c1 [Example 344, N-[1-(3,4-difluorophenyl)-1-methylethyl]-6-oxo-2-phenyl-1,6-dihydropyrimidine-4-carboxamide]",681
3,"O=C(NC1(c2ccccc2OC(F)(F)F)CC1)c1cc(=O)[nH]c(-c2ccccc2)n1 [Example 380, 6-oxo-2-phenyl-N-{1-[2-(trifluoromethoxy)phenyl]cyclopropyl}-1,6-dihydropyrimidine-4-carboxamide]",353
4,"CC(C)(NC(=O)c1cc(=O)[nH]c(-c2ccccc2)n1)c1ccc(F)cc1 [Example 349, N-[1-(4-fluorophenyl)-1-methylethyl]-6-oxo-2-phenyl-1,6-dihydropyrimidine-4-carboxamide]",713
5,"C[C@@H](NC(=O)c1cc(=O)[nH]c(-c2ccccc2)n1)c1cccc2ccccc12 [Example 354, N-[(1R)-1-naphthalen-1-ylethyl]-6-oxo-2-phenyl-1,6-dihydropyrimidine-4-carboxamide]",2800
6,"Cc1nc(C(=O)NC(c2ccc(C3(C)CC3)c(F)c2)C(C)(C)C)cc(=O)[nH]1 (single isomer, unassigned) [Example 710, (S)- or (R)-N-(1-(3-fluoro-4-(1-methylcyclopropyl)phenyl)-2,2-dimethylpropyl)-2-methyl-6-oxo-1,6-dihydropyrimidine-4-carboxamide]",> 2970
7,"CC1(C(NC(=O)c2cc(=O)[nH]c(-c3ncccn3)n2)c2ccc(SC(F)(F)F)c(F)c2)CC1 (single isomer, unassigned) [Example 708, (S)- or (R)-N-((3-fluoro-4-((trifluoromethyl)thio)phenyl)(1-methylcyclopropyl)methyl)-6-oxo-1,6-dihydro-[2,2′-bipyrimidine-4-carboxamide]",~2120
8,"CC(NC(=O)c1cc(=O)[nH]c(-c2ccccc2)n1)c1ccc(C(F)(F)F)nc1 (stereo not drawn) [Example 356, 6-oxo-2-phenyl-N-{1-[6-(trifluoromethyl)pyridin-3-yl]ethyl}-1,6-dihydropyrimidine-4-carboxamide]",490
9,"C[C@H](O)[C@@H](NC(=O)c1cc(=O)[nH]c(C2CC2)n1)c1ccc(C(F)(F)F)cc1 [Example 442, 2-cyclopropyl-N-{(1S,2S)-2-hydroxy-1-[4-(trifluoromethyl)phenyl]propyl}-6-oxo-1,6-dihydropyrimidine-4-carboxamide]",> 2970
